Series [1] has as its target T1, Mucosa-associated lymphoid tissue lymphoma translocation protein 1 (Homo sapiens, UniProt Q9UDY8).
T1 sequence (Q9UDY8 whole entry): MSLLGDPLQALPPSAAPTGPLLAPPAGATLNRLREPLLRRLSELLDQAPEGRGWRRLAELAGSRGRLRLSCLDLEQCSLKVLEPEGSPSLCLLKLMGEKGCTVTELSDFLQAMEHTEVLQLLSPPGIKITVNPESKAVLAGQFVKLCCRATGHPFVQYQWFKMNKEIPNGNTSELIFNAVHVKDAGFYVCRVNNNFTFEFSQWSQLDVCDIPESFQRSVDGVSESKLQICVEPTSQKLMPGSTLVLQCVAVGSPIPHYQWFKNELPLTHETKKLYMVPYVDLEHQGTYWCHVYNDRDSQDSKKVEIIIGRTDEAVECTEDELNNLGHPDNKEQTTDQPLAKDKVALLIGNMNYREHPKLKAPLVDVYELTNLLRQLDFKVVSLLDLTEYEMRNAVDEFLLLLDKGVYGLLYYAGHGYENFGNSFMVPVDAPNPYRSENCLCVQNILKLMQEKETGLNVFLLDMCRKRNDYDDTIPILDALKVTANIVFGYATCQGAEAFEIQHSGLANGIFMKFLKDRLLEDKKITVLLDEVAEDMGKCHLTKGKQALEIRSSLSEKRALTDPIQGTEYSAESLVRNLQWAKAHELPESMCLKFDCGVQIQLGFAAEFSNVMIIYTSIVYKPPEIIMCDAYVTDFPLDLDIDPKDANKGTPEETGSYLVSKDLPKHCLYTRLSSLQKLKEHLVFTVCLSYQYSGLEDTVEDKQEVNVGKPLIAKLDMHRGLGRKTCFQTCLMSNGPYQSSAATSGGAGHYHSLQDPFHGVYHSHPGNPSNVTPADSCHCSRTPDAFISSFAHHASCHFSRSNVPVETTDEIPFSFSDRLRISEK
Briefly: Inhibition of MALT1 (unknown origin).

Series [2] deals with T2, Mucosa-associated lymphoid tissue lymphoma translocation protein 1 (Homo sapiens) (UniProt Q9UDY8).
T2 sequence (whole entry): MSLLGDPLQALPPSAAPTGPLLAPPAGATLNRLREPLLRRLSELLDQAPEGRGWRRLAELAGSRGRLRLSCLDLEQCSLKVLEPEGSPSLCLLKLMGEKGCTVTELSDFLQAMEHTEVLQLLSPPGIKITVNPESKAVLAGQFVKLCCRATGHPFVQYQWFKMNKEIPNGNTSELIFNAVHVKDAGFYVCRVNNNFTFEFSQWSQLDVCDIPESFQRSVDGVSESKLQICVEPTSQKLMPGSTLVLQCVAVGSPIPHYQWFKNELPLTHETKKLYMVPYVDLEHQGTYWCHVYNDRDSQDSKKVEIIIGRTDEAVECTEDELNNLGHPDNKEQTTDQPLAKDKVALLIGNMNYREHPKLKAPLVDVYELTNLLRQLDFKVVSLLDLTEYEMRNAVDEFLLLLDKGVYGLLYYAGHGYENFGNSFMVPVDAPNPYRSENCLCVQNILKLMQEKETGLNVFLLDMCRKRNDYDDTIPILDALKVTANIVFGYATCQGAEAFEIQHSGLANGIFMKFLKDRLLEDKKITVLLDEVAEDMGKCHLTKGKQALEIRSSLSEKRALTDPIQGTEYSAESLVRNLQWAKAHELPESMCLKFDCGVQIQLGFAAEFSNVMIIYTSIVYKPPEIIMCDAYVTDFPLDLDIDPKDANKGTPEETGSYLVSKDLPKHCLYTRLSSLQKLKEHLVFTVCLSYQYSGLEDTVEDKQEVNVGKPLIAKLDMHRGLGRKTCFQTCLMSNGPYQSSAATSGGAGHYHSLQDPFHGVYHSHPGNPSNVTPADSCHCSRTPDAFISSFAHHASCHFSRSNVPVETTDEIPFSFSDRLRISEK
Briefly: Inhibition of MALT1 (unknown origin) at 25 uM relative to control.

Series [3] addresses Nuclear factor NF-kappa-B complex (Homo sapiens, UniProt P19838+Q00653+Q04206). Nature of the series: Inhibition of NF-kappaB (unknown origin). The class given is protein-complex assay.
Substrate in series [4]: CN(C)CCNC(=O)c1cc(-c2ccc(Cl)cc2)n(-c2ccc(Cl)cc2)n1
Conditions: Homo sapiens; dose 0.5 µM.
Description: Non-competitive inhibition of MALT1 (unknown origin) assessed as Michaelis-constant at 0.5 uM by Michaelis-Menten analysis (Rvb = 246.9 microM)

IC50, inhibition and Km data for 45 molecules are collected here from ChEMBL document CHEMBL4814035, “Structure-activity relationship studies of 3-substituted pyrazoles as novel allosteric inhibitors of MALT1 protease” (Bioorg Med Chem Lett, 2021).

Chain of Nuclear factor NF-kappa-B complex (P19838 1-433 limits assumed): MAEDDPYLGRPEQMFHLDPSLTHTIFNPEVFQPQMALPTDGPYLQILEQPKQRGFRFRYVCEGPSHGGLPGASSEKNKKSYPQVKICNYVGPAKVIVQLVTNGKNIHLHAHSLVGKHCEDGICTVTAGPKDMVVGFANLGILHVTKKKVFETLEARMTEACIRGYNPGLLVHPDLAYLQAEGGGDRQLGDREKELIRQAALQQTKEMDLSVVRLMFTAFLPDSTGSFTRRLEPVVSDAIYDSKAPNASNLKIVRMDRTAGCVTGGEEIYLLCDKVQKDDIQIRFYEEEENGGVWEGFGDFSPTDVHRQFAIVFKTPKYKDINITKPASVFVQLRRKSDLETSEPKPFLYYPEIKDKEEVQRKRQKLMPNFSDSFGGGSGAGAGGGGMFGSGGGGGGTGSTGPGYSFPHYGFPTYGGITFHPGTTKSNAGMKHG
Chain of Nuclear factor NF-kappa-B complex (Q00653 1-454 limits assumed): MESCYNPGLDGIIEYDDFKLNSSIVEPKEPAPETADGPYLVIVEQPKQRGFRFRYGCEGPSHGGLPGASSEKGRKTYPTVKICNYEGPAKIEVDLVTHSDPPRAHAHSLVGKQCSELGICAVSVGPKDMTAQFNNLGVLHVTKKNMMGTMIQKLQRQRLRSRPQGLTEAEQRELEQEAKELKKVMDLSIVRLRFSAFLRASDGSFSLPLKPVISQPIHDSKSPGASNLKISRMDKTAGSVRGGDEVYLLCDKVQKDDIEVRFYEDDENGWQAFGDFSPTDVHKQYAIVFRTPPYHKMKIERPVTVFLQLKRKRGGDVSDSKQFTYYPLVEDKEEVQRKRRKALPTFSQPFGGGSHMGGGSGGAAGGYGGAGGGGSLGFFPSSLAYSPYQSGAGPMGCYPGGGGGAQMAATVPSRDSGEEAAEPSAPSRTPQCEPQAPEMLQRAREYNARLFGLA
Chain of Nuclear factor NF-kappa-B complex (Q04206 whole entry): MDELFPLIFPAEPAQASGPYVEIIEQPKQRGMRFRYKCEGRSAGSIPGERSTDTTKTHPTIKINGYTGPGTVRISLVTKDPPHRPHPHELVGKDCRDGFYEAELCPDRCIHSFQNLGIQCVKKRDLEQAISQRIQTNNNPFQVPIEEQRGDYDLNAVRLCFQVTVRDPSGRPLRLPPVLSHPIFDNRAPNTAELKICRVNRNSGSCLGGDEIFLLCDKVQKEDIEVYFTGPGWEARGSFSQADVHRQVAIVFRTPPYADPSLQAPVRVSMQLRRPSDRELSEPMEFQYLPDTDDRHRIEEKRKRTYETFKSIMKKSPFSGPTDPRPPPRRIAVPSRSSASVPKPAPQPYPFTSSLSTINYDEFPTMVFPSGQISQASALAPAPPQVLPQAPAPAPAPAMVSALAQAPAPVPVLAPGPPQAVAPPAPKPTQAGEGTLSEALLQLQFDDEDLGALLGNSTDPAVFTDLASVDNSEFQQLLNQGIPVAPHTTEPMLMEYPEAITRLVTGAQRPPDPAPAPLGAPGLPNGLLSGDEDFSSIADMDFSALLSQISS

In general, IC50 refers to the concentration needed to halve the response being measured. With `CS(=O)(=O)NCCNC(=O)c1cc(-c2ccc(Cl)cc2)n(-c2ccc(Cl)cc2)n1`, in series [1], the IC50 was 4.37 µM.
In general, inhibition refers to how much of the control response was suppressed. For `CNC(=O)c1cc(-c2ccccc2Cl)n(-c2ccc(Cl)cc2)n1`, the IC50 in series [1] is > 25 µM. In series [2], this molecule gave an inhibition of 23%.
The like results for `CNC(=O)c1cc(-c2ccsc2)n(-c2ccc(Cl)cc2)n1` were, in that order, > 25 µM and 26%.
Take `CNC(=O)c1cc(-c2ccoc2)n(-c2ccc(Cl)cc2)n1`: in series [1], the IC50 was > 25 µM. In series [2], this molecule showed an inhibition of 16%.
On the same counts, the results for `CNC(=O)c1cc(-c2ccccc2)n(-c2ccc(Cl)cc2)n1` are 16.8 µM and 61%.
The like results for `CNC(=O)c1cc(-c2ccc(Cl)cc2)n(-c2ccccc2Cl)n1` were, in that order, > 25 µM and 46%.
On the same counts, the results for `CNC(=O)c1cc(-c2ccc(Cl)cc2)n(C)n1` are > 25 µM and 7.7%.
For `CNC(=O)c1cc(-c2ccco2)n(-c2ccc(Cl)cc2)n1`, the IC50 in series [1] is > 25 µM. For the same molecule, in series [2], the inhibition amounted to 20%.
For `CN(C)CCCNC(=O)c1cc(-c2ccc(Cl)cc2)n(-c2ccc(Cl)cc2)n1`, the IC50 in series [1] was determined as 2.63 µM.
Molecule `CN1CCCC(NC(=O)c2cc(-c3ccc(Cl)cc3)n(-c3ccc(Cl)cc3)n2)C1` (stereo unspecified) registered an IC50 in series [1] of 1.7 µM.
Regarding `CNC(=O)c1cc(-c2ccc(C(F)(F)F)cc2)n(-c2ccc(Cl)cc2)n1`, the IC50 in series [1] is > 25 µM. The inhibition in series [2] came to 47%.
In series [1], `CN(C)C(=O)c1cc(-c2ccc(Cl)cc2)n(-c2ccc(Cl)cc2)n1` showed an IC50 of 21.2 µM.
Regarding `CNC(=O)c1cc(-c2ccc(OC)nc2)n(-c2ccc(Cl)cc2)n1`, the IC50 in series [1] is > 25 µM. Besides, the inhibition in series [2] was 21%.
In turn, `CN1CCOC[C@H]1CNC(=O)c1cc(-c2ccc(Cl)cc2)n(-c2ccc(Cl)cc2)n1` showed an IC50 in series [1] of 2.01 µM. This counts as single-digit micromolar.
As for `CNC(=O)c1cc(-c2cccc(Cl)c2)n(-c2ccc(Cl)cc2)n1`, the IC50 in series [1] was > 25 µM. This molecule also displayed an inhibition in series [2] of 43%.
Consider `O=C(NCC1COCCN1)c1cc(-c2ccc(Cl)cc2)n(-c2ccc(Cl)cc2)n1` (stereo unspecified), for which the IC50 in series [1] stood at 0.819 µM.
As for `CNC(=O)c1cc(-c2ccc(S(C)(=O)=O)cc2)n(-c2ccc(Cl)cc2)n1`, the IC50 in series [1] was > 25 µM. Further, in series [2], the inhibition stood at 5.7%.
Consider `CNC(=O)c1cc(-c2ccc(Cl)cc2)n(-c2cccc(Cl)c2)n1`, for which the inhibition in series [2] was 57%.
For the molecule `CN(C)CCNC(=O)c1cc(-c2ccc(Cl)cc2)n(-c2ccc(Cl)cc2)n1`, the IC50 in series [1] worked out at 0.49 µM; in series [3], 5.41 µM.
Turning to `O=C(c1cc(-c2ccc(Cl)cc2)n(-c2ccc(Cl)cc2)n1)N1CCCC1`, the IC50 in series [1] is > 25 µM.
With `CSc1ccc2c(c1)N(CCC1CCCCN1C)c1ccccc1S2` (stereo unspecified) [THIORIDAZINE], the IC50 in series [1] stood at 3.43 µM.
In series [1], `CC(=O)NCCNC(=O)c1cc(-c2ccc(Cl)cc2)n(-c2ccc(Cl)cc2)n1` yielded an IC50 of 3.3 µM.
In turn, `NCCCNC(=O)c1cc(-c2ccc(Cl)cc2)n(-c2ccc(Cl)cc2)n1` showed an IC50 in series [1] of 7.39 µM.
Still for that read-out and setting: to `O=C(NCC1CCCCC1)c1cc(-c2ccc(Cl)cc2)n(-c2ccc(Cl)cc2)n1` belongs > 25 µM.
Take `CNC(=O)c1cc(-c2ccc(OC(F)(F)F)cc2)n(-c2ccc(Cl)cc2)n1`: the IC50 in series [1] was > 25 µM. Further, the inhibition in series [2] is 38%.
The molecule `NCCNC(=O)c1cc(-c2ccc(Cl)cc2)n(-c2ccc(Cl)cc2)n1` registered an IC50 in series [1] of 1.98 µM.
`CNC(=O)c1cc(-c2ccc(CO)cc2)n(-c2ccc(Cl)cc2)n1`: in series [1], the IC50 is > 25 µM. For the same molecule, the inhibition in series [2] was found to be 19%.
In turn, `NC(=O)CCNC(=O)c1cc(-c2ccc(Cl)cc2)n(-c2ccc(Cl)cc2)n1` registered an IC50 in series [1] of 13.4 µM.
`CNC(=O)c1cc(-c2ccc(F)cc2)n(-c2ccc(Cl)cc2)n1`: the IC50 in series [1] was > 25 µM. This molecule also registered an inhibition in series [2] of 47%.
On to `CNCCNC(=O)c1cc(-c2ccc(Cl)cc2)n(-c2ccc(Cl)cc2)n1`, for which, in series [1], the IC50 was found to be 0.8 µM. This lies in the sub-micromolar range.
Turning to `O=C(NCCCO)c1cc(-c2ccc(Cl)cc2)n(-c2ccc(Cl)cc2)n1`, it took 12.4 µM to reach half-maximal inhibition in series [1] (IC50).
Take `CNC(=O)c1cc(-c2ccc(Cl)cc2)n(-c2ccc(Cl)cc2)n1`: the IC50 is 7.01 µM in series [1] and 9.34 µM in series [3]. For the same molecule, in series [2], the inhibition came to 72%.
In the case of `O=C(NCCc1ccccc1)c1cc(-c2ccc(Cl)cc2)n(-c2ccc(Cl)cc2)n1`, in series [1], the IC50 was > 25 µM.
On the same count and under the same terms, the figure for `CN(C)C1CCN(C(=O)c2cc(-c3ccc(Cl)cc3)n(-c3ccc(Cl)cc3)n2)C1` (stereo unspecified) is 10.6 µM.
Molecule `CNC(=O)c1cc(-c2ccc(Cl)cc2)n(-c2ccccc2)n1` gave an IC50 in series [1] of 19.8 µM. In series [2], the inhibition came out at 59%.
Molecule `O=C(NCCO)c1cc(-c2ccc(Cl)cc2)n(-c2ccc(Cl)cc2)n1` registered an IC50 in series [1] of 6.55 µM.
On to `CN1CCCCC1CNC(=O)c1cc(-c2ccc(Cl)cc2)n(-c2ccc(Cl)cc2)n1` (stereo unspecified), for which half-maximal inhibition in series [1] (IC50) required 0.521 µM. Compared with the last molecule, the IC50 is about 13-fold lower.
With `CCN1CCC[C@@H]1CNC(=O)c1cc(-c2ccc(Cl)cc2)n(-c2ccc(Cl)cc2)n1`, the IC50 in series [1] was 2.1 µM.
In the case of `CNC(=O)c1cc(-c2ccc(C#N)cc2)n(-c2ccc(Cl)cc2)n1`, in series [1], the IC50 was > 25 µM. In series [2], this molecule came in with an inhibition of 31%.
On the same counts, the results for `CNC(=O)c1cc(-c2ccc(Cl)cc2)n(Cc2ccccc2)n1` are 16.3 µM and 57%.
In turn, `CNC(=O)c1cc(-c2ccc(OC)cc2)n(-c2ccc(Cl)cc2)n1` yielded an IC50 in series [1] of 6.55 µM. In addition, the inhibition in series [2] stood at 80%.
`CNC(=O)c1cc(-c2ccc(Cl)cc2)n(C2CCCCC2)n1`: the inhibition in series [2] was determined as 63%.
`CN(C)CCCCNC(=O)c1cc(-c2ccc(Cl)cc2)n(-c2ccc(Cl)cc2)n1` returned an IC50 in series [1] of 2.22 µM.
Molecule `CN1CCC(O)CC1CNC(=O)c1cc(-c2ccc(Cl)cc2)n(-c2ccc(Cl)cc2)n1` (stereo unspecified) had an IC50 in series [1] of 0.993 µM.

B1: Mucosa-associated lymphoid tissue lymphoma translocation protein 1 (Homo sapiens), Q9UDY8 (protein)
chain: MSLLGDPLQALPPSAAPTGPLLAPPAGATLNRLREPLLRRLSELLDQAPEGRGWRRLAELAGSRGRLRLSCLDLEQCSLKVLEPEGSPSLCLLKLMGEKGCTVTELSDFLQAMEHTEVLQLLSPPGIKITVNPESKAVLAGQFVKLCCRATGHPFVQYQWFKMNKEIPNGNTSELIFNAVHVKDAGFYVCRVNNNFTFEFSQWSQLDVCDIPESFQRSVDGVSESKLQICVEPTSQKLMPGSTLVLQCVAVGSPIPHYQWFKNELPLTHETKKLYMVPYVDLEHQGTYWCHVYNDRDSQDSKKVEIIIGRTDEAVECTEDELNNLGHPDNKEQTTDQPLAKDKVALLIGNMNYREHPKLKAPLVDVYELTNLLRQLDFKVVSLLDLTEYEMRNAVDEFLLLLDKGVYGLLYYAGHGYENFGNSFMVPVDAPNPYRSENCLCVQNILKLMQEKETGLNVFLLDMCRKRNDYDDTIPILDALKVTANIVFGYATCQGAEAFEIQHSGLANGIFMKFLKDRLLEDKKITVLLDEVAEDMGKCHLTKGKQALEIRSSLSEKRALTDPIQGTEYSAESLVRNLQWAKAHELPESMCLKFDCGVQIQLGFAAEFSNVMIIYTSIVYKPPEIIMCDAYVTDFPLDLDIDPKDANKGTPEETGSYLVSKDLPKHCLYTRLSSLQKLKEHLVFTVCLSYQYSGLEDTVEDKQEVNVGKPLIAKLDMHRGLGRKTCFQTCLMSNGPYQSSAATSGGAGHYHSLQDPFHGVYHSHPGNPSNVTPADSCHCSRTPDAFISSFAHHASCHFSRSNVPVETTDEIPFSFSDRLRISEK
The Km is the concentration of substrate that gives half-maximal velocity. For B1, in series [4], the Km is 234 µM.
